The test system of experiment [1] is secretion of growth hormone (GH) from the pituitary gland. Particulars: Broglio et al. 2004; cited from earlier work.
In another experiment the test system is rats with hyperthermia. Kind of experiment: Suppressive effect of desacyl ghrelin against body temperature increase in rats with hyperthermia (rectal temperature, survival). Format: in vivo, rat. As for the experimental part: The rectal temperature was measured with a small animal body temperature controller ATC-101B made by Unique Medical Co., Ltd.
The life or death of each animal was determined in a comprehensive manner based on changes in the heart rate, respiratory rate, and body temperature, the amount of activity, the response to a physical stimulation, etc.
This experiment was performed in the same manner as in Example 1 unless otherwise stated.
While maintaining the air temperature in the laboratory at 33 to 35° C., the humidity was increased from 30% (at the beginning of the experiment) to 75% (at the end of the experiment), and thus the laboratory conditions were gradually changed to high temperature and high humidity conditions. The rats were then carried into the laboratory. The rats were housed in a plastic cage in groups of three each. […] As a control, 200 μl/rat of physiological saline was intraperitoneally injected to the rats.
At the elapsed time of 110 minutes (80 minutes after the intraperitoneal injection), the rats were transferred from the laboratory to room temperature.
At the elapsed time of 130 minutes (100 minutes after the intraperitoneal injection), the life or death of each rat was determined by visual observation and palpation.
The body temperature was measured at the rectum in this Example.

Experiment [2] deals with rats with the normal body temperature. Briefly: Hypothermic effect of desacyl ghrelin in rats with normal body temperature (back/tail surface temperature by thermography). Format: in vivo, rat. The note with it: male Wistar rats. How it is done: Male Wistar rats (9 to 10 weeks old) were used as experimental animals.
The administration to the animals was performed by a single dose of intraperitoneal or intracerebroventricular injection. The dose was 3 nmol/rat for intraperitoneal administration and 0.5 nmol/rat for intracerebroventricular administration, regardless of the weight of the animals. The weight of the rats varied from 350.2 to 375.8 g.
The back or tail surface temperature of the animals was measured for 1 hour at intervals of 1 minute by thermography using FLIR SC620 (software name: FLIR Rsearch IR) made by FLIR Systems Inc. The body temperature values measured by thermography are shown as increase and decrease from the zero reference point obtained by measurement of the body temperature for 10 minutes prior to the intraperitoneal injection.
The laboratory was maintained at room temperature and the rats were carried thereinto. […] As another control, 200 μl/rat of physiological saline was intraperitoneally injected to the rats.
As a control, 0.5 nmol/rat of the rat-derived ghrelin was intracerebroventricularly administered the rats. As another control, 200 μl/rat of physiological saline was intracerebroventricularly administered to the rats.
The back and tail surface temperatures were measured by thermography in this Example.

We go through one substance from patent US9555077B2 (UNIVERSITY OF MIYAZAKI, priority 2011, dated 2017).

Take desacyl ghrelin: the “activity to increase the secretion of growth hormone (GH) from the pituitary gland” value in experiment [1] is “almost no activity”. In addition, the “survival (life or death of each rat)” value in the experiment on rats with hyperthermia (elapsed time 130 minutes (100 minutes after 10 nmol/rat i.p.), three rats per group, two of three control rats died) is on record as “all the three rats in the desacyl ghrelin-administered group survived”. Further, the “Body temperature of rats” value was found to be 36.1 ± 0.1 °C in the experiment on rats with hyperthermia (rectal, elapsed time 0 minutes at 33 to 35° C. (before the injection)); 37.0 ± 0.1 °C with rats with hyperthermia (rectal, elapsed time 10 minutes (before the injection)); 38.2 ± 0.2 °C in the experiment with rats with hyperthermia (rectal, elapsed time 20 minutes (before the injection)); 38.8 ± 0.2 °C with rats with hyperthermia (rectal, elapsed time 30 minutes (time of intraperitoneal injection, 10 nmol/rat)); 39.2 ± 0.2 °C in the experiment with rats with hyperthermia (rectal, elapsed time 40 minutes (10 minutes after 10 nmol/rat i.p.)); 39.7 ± 0.0 °C in the experiment on rats with hyperthermia (rectal, elapsed time 50 minutes (20 minutes after 10 nmol/rat i.p.)). In addition, the “Body temperature of rats” value was 39.9 ± 0.1 °C in the experiment on rats with hyperthermia (rectal, elapsed time 60 minutes (30 minutes after 10 nmol/rat i.p.)); 40.0 ± 0.3 °C in the experiment with rats with hyperthermia (rectal, elapsed time 70 minutes (40 minutes after 10 nmol/rat i.p.)); 40.2 ± 0.2 °C with rats with hyperthermia (rectal, elapsed time 80 minutes (50 minutes after 10 nmol/rat i.p.)); 40.0 ± 0.2 °C in the experiment with rats with hyperthermia (rectal, elapsed time 90 minutes (60 minutes after 10 nmol/rat i.p.)); 40.1 ± 0.2 °C in the experiment on rats with hyperthermia (rectal, elapsed time 100 minutes (70 minutes after 10 nmol/rat i.p.)); 40.3 ± 0.1 °C in the experiment with rats with hyperthermia (rectal, elapsed time 110 minutes (80 minutes after 10 nmol/rat i.p.)). The “body temperature, lower than that of the physiological saline-administered group” value in the experiment with rats with hyperthermia (rectal, elapsed time 50 to 110 minutes (20 to 80 minutes after 10 nmol/rat i.p.), p<0.05 or 0.01) lay within 0.3 to 1.2 °C. Further, in experiment [2] (0.5 nmol/rat intracerebroventricular, 10 to 30 minutes after injection (FIG. 3)), the “hypothermic effect in back surface temperature compared with ghrelin-administered group” value is reported as “higher hypothermic effect”. In addition, the “heat dissipation effect compared with ghrelin” value in experiment [2] (3 nmol/rat intraperitoneal, tail surface temperature (FIG. 2)) is “more excellent than that of ghrelin”. For the same substance, the tail surface temperature entry in experiment [2] (3 nmol/rat intraperitoneal, thermography (FIG. 2)) is reported as “increased”. The “back surface temperature, lower than that of the physiological-saline administered group” value in experiment [2] (room temperature, 3 nmol/rat intraperitoneal, 5 to 60 minutes after injection, thermography (FIG. 1)) lay within 0.3 to 0.8 °C.
